System: voltage-gated calcium current in HN2A12 cells
Type: cell-based, murine

Molecule | inhibition of the voltage-gated calcium current | block of the calcium current (N-type part)
[Cl][Cd][Cl] [CdCl2] | completely inhibited | –
ω-conotoxin-GVIA | – | about 38%
